Source: PubChem BioAssay (NCI)
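Cells were grown in 96-well plates and exposed to each compound for 48 hours at five concentrations; endpoints were interpolated linearly between bracketing concentrations, or set to the highest concentration if not reached. GI50: concentration for 50% inhibition of growth. The concentration for full growth arrest is given as TGI.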

How the values were obtained:
Assay in all cases: NCI anticancer screen, dose series, 48 h
EKVX NSCLC = system: EKVX NSCLC
HT29 colon = system: HT29 colon
MDA-MB-435 = system: MDA-MB-435
COLO 205 colon = system: COLO 205 colon
SF-539 CNS = system: SF-539 CNS
SK-MEL-5 melanoma = system: SK-MEL-5 melanoma
MALME-3M melanoma = system: MALME-3M melanoma
NCI-H23 lung = system: NCI-H23 lung
NCI/ADR-RES ovarian = system: NCI/ADR-RES ovarian
SR leukemia = system: SR leukemia
IGROV1 ovarian = system: IGROV1 ovarian
PC-3 prostate = system: PC-3 prostate
SF-268 CNS = system: SF-268 CNS
KM12 colon = system: KM12 colon
SNB-19 CNS = system: SNB-19 CNS
K-562 leukemia = system: K-562 leukemia
CCRF-CEM leukemia = system: CCRF-CEM leukemia
TK-10 renal = system: TK-10 renal
CAKI-1 renal = system: CAKI-1 renal
SN12C renal = system: SN12C renal
HCT-15 colon = system: HCT-15 colon
BT-549 breast = system: BT-549 breast
U251 CNS = system: U251 CNS
DU-145 prostate = system: DU-145 prostate
SNB-75 CNS = system: SNB-75 CNS
T-47D breast = system: T-47D breast
786-0 renal = system: 786-0 renal
OVCAR-8 ovarian = system: OVCAR-8 ovarian
UACC-257 melanoma = system: UACC-257 melanoma
SK-MEL-28 melanoma = system: SK-MEL-28 melanoma
SK-MEL-2 melanoma = system: SK-MEL-2 melanoma
HCC-2998 colon = system: HCC-2998 colon
LOX IMVI melanoma = system: LOX IMVI melanoma
MDA-MB-231 breast = system: MDA-MB-231 breast
RXF 393 renal = system: RXF 393 renal
HOP-92 NSCLC = system: HOP-92 NSCLC
ACHN renal = system: ACHN renal
HL-60(TB) leukemia = system: HL-60(TB) leukemia
UACC-62 melanoma = system: UACC-62 melanoma
SK-OV-3 ovarian = system: SK-OV-3 ovarian
UO-31 renal = system: UO-31 renal
HCT-116 colon = system: HCT-116 colon
OVCAR-4 ovarian = system: OVCAR-4 ovarian
A549 NSCLC = system: A549 NSCLC
MCF7 breast = system: MCF7 breast
NCI-H460 lung = system: NCI-H460 lung
OVCAR-3 ovarian = system: OVCAR-3 ovarian
RPMI-8226 leukemia = system: RPMI-8226 leukemia
SF-295 CNS = system: SF-295 CNS
HS 578T breast = system: HS 578T breast
SW-620 colon = system: SW-620 colon
NCI-H226 lung = system: NCI-H226 lung
MOLT-4 leukemia = system: MOLT-4 leukemia
A498 renal = system: A498 renal
M14 melanoma = system: M14 melanoma
NCI-H522 lung = system: NCI-H522 lung
HOP-62 NSCLC = system: HOP-62 NSCLC

Work on `c1cn2cc(-c3ccc4cn[nH]c4c3)nc(Nc3ccc(N4CCOCC4)cc3)c2n1` yielded a GI50 (EKVX NSCLC) of 14.8 µM, a TGI (EKVX NSCLC) of 41.8 µM and a GI50 (HT29 colon) of 9.01 µM. It also gave a TGI (HT29 colon) of 37 µM, a GI50 (MDA-MB-435) of 12.8 µM and a TGI (MDA-MB-435) greater than 100 µM. For the same molecule, the GI50 (COLO 205 colon) was 41.3 µM, the TGI (COLO 205 colon) was greater than 100 µM and the GI50 (SF-539 CNS) was 6.54 µM. The TGI (SF-539 CNS) was 23.1 µM, the GI50 (SK-MEL-5 melanoma) was 15.5 µM and the TGI (SK-MEL-5 melanoma) was 40.1 µM. The GI50 (MALME-3M melanoma) was 10.4 µM, the TGI (MALME-3M melanoma) was 27.3 µM and the GI50 (NCI-H23 lung) was 15.2 µM. The TGI (NCI-H23 lung) was 55 µM, the GI50 (NCI/ADR-RES ovarian) was 11.1 µM and the TGI (NCI/ADR-RES ovarian) was 32.4 µM. It also gave a GI50 (SR leukemia) of 6.66 µM, a TGI (SR leukemia) of 27.5 µM and a GI50 (IGROV1 ovarian) of 16.5 µM. For the same molecule, the TGI (IGROV1 ovarian) was 46 µM, the GI50 (PC-3 prostate) was 14.7 µM and the TGI (PC-3 prostate) was 35.4 µM. It also gave a GI50 (SF-268 CNS) of 5.11 µM, a TGI (SF-268 CNS) of 27.4 µM and a GI50 (KM12 colon) of 0.479 µM. The TGI (KM12 colon) was 59 µM, the GI50 (SNB-19 CNS) was 11.2 µM and the TGI (SNB-19 CNS) was 30.8 µM. It also gave a GI50 (K-562 leukemia) greater than 100 µM, a TGI (K-562 leukemia) greater than 100 µM and a GI50 (CCRF-CEM leukemia) greater than 100 µM. The TGI (CCRF-CEM leukemia) was greater than 100 µM, the GI50 (TK-10 renal) was 17.3 µM and the TGI (TK-10 renal) was 37.8 µM. For the same molecule, the GI50 (CAKI-1 renal) was 8.4 µM, the TGI (CAKI-1 renal) was 44.3 µM and the GI50 (SN12C renal) was 17 µM. For the same molecule, the TGI (SN12C renal) was 41.2 µM, the GI50 (HCT-15 colon) was 11.7 µM and the TGI (HCT-15 colon) was 41.1 µM. It also gave a GI50 (BT-549 breast) of 14.5 µM, a TGI (BT-549 breast) of 48.1 µM and a GI50 (U251 CNS) of 10 µM. For the same molecule, the TGI (U251 CNS) was 21.6 µM, the GI50 (DU-145 prostate) was 11.4 µM and the TGI (DU-145 prostate) was 23.5 µM. The GI50 (SNB-75 CNS) was 1.46 µM, the TGI (SNB-75 CNS) was 13.3 µM and the GI50 (T-47D breast) was 12 µM. The TGI (T-47D breast) was 30.9 µM, the GI50 (786-0 renal) was 14.9 µM and the TGI (786-0 renal) was 32 µM. It also gave a GI50 (OVCAR-8 ovarian) of 4.87 µM, a TGI (OVCAR-8 ovarian) of 21.8 µM and a GI50 (UACC-257 melanoma) of 16.4 µM. The TGI (UACC-257 melanoma) was 44.8 µM, the GI50 (SK-MEL-28 melanoma) was 13 µM and the TGI (SK-MEL-28 melanoma) was 40.5 µM. It also gave a GI50 (SK-MEL-2 melanoma) of 36.1 µM, a TGI (SK-MEL-2 melanoma) greater than 100 µM and a GI50 (HCC-2998 colon) of 61.6 µM. The TGI (HCC-2998 colon) was greater than 100 µM, the GI50 (LOX IMVI melanoma) was 17.8 µM and the TGI (LOX IMVI melanoma) was greater than 100 µM. The GI50 (MDA-MB-231 breast) was 12.6 µM, the TGI (MDA-MB-231 breast) was 26.7 µM and the GI50 (RXF 393 renal) was 2.47 µM. It also gave a TGI (RXF 393 renal) of 18.3 µM, a GI50 (HOP-92 NSCLC) of 15.6 µM and a TGI (HOP-92 NSCLC) of 33.8 µM. For the same molecule, the GI50 (ACHN renal) was 11.1 µM, the TGI (ACHN renal) was 32.2 µM and the GI50 (HL-60(TB) leukemia) was greater than 100 µM. The TGI (HL-60(TB) leukemia) was greater than 100 µM, the GI50 (UACC-62 melanoma) was 11.8 µM and the TGI (UACC-62 melanoma) was 37.8 µM. The GI50 (SK-OV-3 ovarian) was 6.43 µM, the TGI (SK-OV-3 ovarian) was 19.6 µM and the GI50 (UO-31 renal) was 14.6 µM. For the same molecule, the TGI (UO-31 renal) was 34.8 µM, the GI50 (HCT-116 colon) was 10.1 µM and the TGI (HCT-116 colon) was 23.3 µM. For the same molecule, the GI50 (OVCAR-4 ovarian) was 7.78 µM, the TGI (OVCAR-4 ovarian) was 36.2 µM and the GI50 (A549 NSCLC) was 10.4 µM. It also gave a TGI (A549 NSCLC) of 28.8 µM, a GI50 (MCF7 breast) of 10.6 µM and a TGI (MCF7 breast) of 25.1 µM. For the same molecule, the GI50 (NCI-H460 lung) was 7.59 µM, the TGI (NCI-H460 lung) was 25.4 µM and the GI50 (OVCAR-3 ovarian) was 18.4 µM. The TGI (OVCAR-3 ovarian) was 40.2 µM, the GI50 (RPMI-8226 leukemia) was 18.5 µM and the TGI (RPMI-8226 leukemia) was 86.6 µM. It also gave a GI50 (SF-295 CNS) of 10.6 µM, a TGI (SF-295 CNS) of 29.5 µM and a GI50 (HS 578T breast) of 11.1 µM. For the same molecule, the TGI (HS 578T breast) was 63.8 µM, the GI50 (SW-620 colon) was 26.7 µM and the TGI (SW-620 colon) was greater than 100 µM. It also gave a GI50 (NCI-H226 lung) of 4.82 µM, a TGI (NCI-H226 lung) of 24.6 µM and a GI50 (MOLT-4 leukemia) of 96.9 µM. It also gave a TGI (MOLT-4 leukemia) greater than 100 µM, a GI50 (A498 renal) of 11.9 µM and a TGI (A498 renal) of 36.2 µM. It also gave a GI50 (M14 melanoma) of 15.1 µM, a TGI (M14 melanoma) of 62.3 µM and a GI50 (NCI-H522 lung) of 12.3 µM. For the same molecule, the TGI (NCI-H522 lung) was 39 µM, the GI50 (HOP-62 NSCLC) was 3.81 µM and the TGI (HOP-62 NSCLC) was 16.1 µM.
